Source: US20090187484A1, “Soil treatments with carbon dioxide” (Cleareso, LLC, priority 2008, published 2009)

Experiments:
[1] = system: Larvae of the root weevil, Diaprepes abbreviatus; test: Immersion of root weevil larvae in test solutions (mortality, moribund effect); assay type: in vivo; settings: for Mortality of larvae with individual compounds and formulations: five larvae; for black residue across all treatments: control to 5.0%; for toxicity judgement for the larvae: 0.1 to 5.0%, test terminated at 24 hours
Excerpt: Larvae and pupae of the root weevil, Diaprepes abbreviatus, were immersed in a variety of compounds to understand their effect on the activity of this pest.
The criterion for toxicity with these larvae is the lack of nipping behavior and its consequent black residue from blood loss and the lack of spontaneous movement.
Experimental Design. Larvae and pupae were received from the Florida Dept. of Agriculture's rearing program in Gainesville, Fla. Larvae were shipped as 50-day larvae (larvae that will pupate in about 10 days). Both larvae and pupae were held at 27° C. in 12 hour cycles of light and dark in their containers as separate individuals until experimentation began.
In the testing, five larvae or pupae were removed from their rearing cups and placed in a 150 ml glass beaker. In testing the Soy Technologies Manufacturer's Base (SMTB), a 5% solution was mixed in either water or carbonated water by adding 10 ml of SMTB to a 250 ml beaker and then adding water or carbonated water to the 200 ml mark. The solutions were then immediately added to the beaker with the larvae or pupae to cover them. Controls with water or carbonated water alone were also included. There was a single tray of five larvae for each treatment at each time period and a five larvae control for each time period. Larvae were removed and placed on plastic weighing trays after 5,10, 15, 20, 25, and 30 minutes. At the end of 30 minutes all organisms were assessed for mortality. Trays with larvae were left on the bench tip for 24 hours and then another mortality assessment was made.
Concentration Series. With the results from the time series above, larvae were held in different concentrations of STMB for 30 minutes. After 30 minutes, solutions were poured off and the trays wiped dry. Assessments were made at 24 or 48 hours with a few assessments at 72 hours dependent on effects. Treatments were: water or carbonated water as controls, and 0.1, 0.5, 1.0, 2.0, 3.0, 4.0 and 5.0% concentrations in either distilled water or carbonated water. Five larvae were used for each control and treatment. Pupae were not used in this assessment.

[2] = Solubility and appearance of the aqueous test preparations; assay type: physicochemical

In the case of “Polyoxyethylene 10 tridecylether [24938-91-8]”, the black residue ([1]; 3 and 5% treatments, 48 hours) was “less black residue”, the “Mortality of larvae with individual compounds and formulations” value (“Mortality of larvae” below) ([1]; concentration 0.1 percent, 24 hours) was 0 and the “Mortality of larvae” value ([1]; concentration 0.1 percent, 48 hours) was 0. For the same molecule, the “Mortality of larvae” value ([1]; concentration 0.1 percent, 72 hours) was 0, the “Mortality of larvae” value ([1]; concentration 1.0 percent, 24 hours) was 2 and the “Mortality of larvae” value ([1]; concentration 1.0 percent, 48 hours) was 2. For the same molecule, the “Mortality of larvae” value ([1]; concentration 1.0 percent, 72 hours) was 2, the “Mortality of larvae” value ([1]; concentration 3.0 percent, 24 hours) was 0 and the “Mortality of larvae” value ([1]; concentration 3.0 percent, 48 hours) was 0. The “Mortality of larvae” value ([1]; concentration 3.0 percent, 72 hours) was 0, the “Mortality of larvae” value ([1]; concentration 5.0 percent, 24 hours) was 0 and the “Mortality of larvae” value ([1]; concentration 5.0 percent, 48 hours) was 3. The “Mortality of larvae” value ([1]; concentration 5.0 percent, 72 hours) was 3 and the “black residue across all treatments” value ([1]; 24 hours) was “gradation of black residue from control to 5.0 with 5.0 having the least”.

For `COC(=O)CCCCC(=O)OC` [627-93-0, Dimethyl hexanedioate], the “appearance (black residue) compared with control” value ([1]; 0.1% treatment, 24 hours) was “looked identical”, the “toxicity judgement for the larvae” value [1] was “non-toxic” and the black residue ([1]; 5.0% treatment, 24 hours) was “only slightly less black residue than the 3.0% treatment”. The “solubility of aqueous preparation” value ([2]; 0.1% concentration) was “soluble”, the “solubility of aqueous preparation” value ([2]; 1.0% concentration) was “not completely soluble” and the “solubility of aqueous preparation” value ([2]; 3.0% concentration) was “not completely soluble”. The “solubility of aqueous preparation” value ([2]; 5.0% concentration) was “not completely soluble”.

In the case of `COC(=O)CCCC(=O)OC` [1119-40-0, pentanedioic acid, dimethyl ester], the “survival of larvae after 30 minutes” value ([1]; 0.1 to 5.0% treatments, end of 30 minutes immersion) was “All larvae were alive” and the black residue ([1]; 3 and 5% treatments, 48 hours) was “less black residue than the control”.

In the case of `COC(=O)CCC(=O)OC` [106-65-0, butanedioic acid, dimethyl ester], the “toxicity judgement for the larvae” value [1] was “non-toxic”, the “black residue across all treatments” value ([1]; 24 hours) was “all treatments looked just like the control” and the “solubility of aqueous preparation” value ([2]; 0.1% concentration) was “soluble”. For the same molecule, the “solubility of aqueous preparation” value ([2]; 1.0% concentration) was “just soluble”, the “solubility of aqueous preparation” value ([2]; 3.0% concentration) was “not soluble” and the “solubility of aqueous preparation” value ([2]; 5.0% concentration) was “not soluble”.
